Assay results reported in patent US10919894B2, “Adenine derivatives which are useful in the treatment of allergic diseases or other inflammatory conditions” (GlaxoSmithKline Biologicals SA, priority 2014, dated 2021).

Tests used:
hTLR7 = biological target: T1, hTLR7 (Homo sapiens, UniProt Q9NYK1); assay: NF-κB SEAP reporter gene assay in HEK293 cells stably transfected with hTLR7; type: cell-based; conditions: for EC50: HEK 293, 24 h stimulation, NF-κB SEAP, read-out: TLR7 ED50; for higher TLR7 potency in relation to oxoadenine 3b: HEK293-hTLR7, FIG. 4A
T1 construct: host or cells: HEK293 cells stably transfected with hTLR7 and NF-κB SEAP reporter
T1 sequence (Q9NYK1 27-1049): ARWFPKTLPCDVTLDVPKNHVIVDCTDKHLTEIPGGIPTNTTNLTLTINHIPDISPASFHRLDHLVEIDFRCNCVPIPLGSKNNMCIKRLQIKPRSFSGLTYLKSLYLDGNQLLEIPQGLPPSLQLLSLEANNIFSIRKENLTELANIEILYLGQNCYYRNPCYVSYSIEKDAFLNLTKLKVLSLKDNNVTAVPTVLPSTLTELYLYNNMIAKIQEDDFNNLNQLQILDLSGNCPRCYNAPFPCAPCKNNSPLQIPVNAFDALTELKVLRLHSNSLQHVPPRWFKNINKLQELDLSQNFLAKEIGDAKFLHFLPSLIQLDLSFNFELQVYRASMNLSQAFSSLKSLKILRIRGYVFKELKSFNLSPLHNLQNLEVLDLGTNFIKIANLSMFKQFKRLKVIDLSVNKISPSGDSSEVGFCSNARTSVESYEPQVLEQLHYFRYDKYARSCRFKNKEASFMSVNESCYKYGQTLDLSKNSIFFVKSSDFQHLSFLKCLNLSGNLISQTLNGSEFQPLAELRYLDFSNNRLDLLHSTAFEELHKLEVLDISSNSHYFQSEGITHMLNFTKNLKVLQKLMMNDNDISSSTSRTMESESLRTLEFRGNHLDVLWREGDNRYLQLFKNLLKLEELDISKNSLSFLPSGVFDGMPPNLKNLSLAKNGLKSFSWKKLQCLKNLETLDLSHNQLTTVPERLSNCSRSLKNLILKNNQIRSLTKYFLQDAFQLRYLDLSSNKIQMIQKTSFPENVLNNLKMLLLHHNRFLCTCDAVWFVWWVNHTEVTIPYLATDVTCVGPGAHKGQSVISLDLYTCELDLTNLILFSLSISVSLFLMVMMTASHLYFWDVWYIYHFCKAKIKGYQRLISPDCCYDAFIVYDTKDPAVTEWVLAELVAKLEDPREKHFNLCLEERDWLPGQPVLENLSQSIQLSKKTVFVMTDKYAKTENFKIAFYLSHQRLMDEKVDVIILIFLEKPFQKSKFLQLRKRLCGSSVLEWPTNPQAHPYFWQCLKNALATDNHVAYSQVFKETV
Procedure: The human (h) TLR7/8 activity of oxoadenines 3a-g was assessed by a reporter gene assay using HEK293 cells stably transfected with either hTLR7 or hTLR8, and with the NF-κB SEAP (secreted embryonic alkaline phosphatase) reporter.
HEK293 cells expressing human TLR7 or TLR8, and NF-κB responsive SEAP reporter gene, were obtained from InvivoGen (San Diego, Calif.). These cells were maintained in culture media of Dulbecco's Modified Eagle Medium (DMEM)
(Invitrogen, Grand Island, N.Y.), 10% Fetal Bovine Serum (FBS) (Sigma, St. Louis, Mo.) and selection antibiotics (Invitrogen and InvivoGen). The stably transfected HEK293 cells were plated in 96-well flat bottom culture plates at 1^E5/well and stimulated for 24 h with a dose range of aqueous formulations of compounds starting at 200 μM, serially diluted to 0.012 μM with 2-fold dilutions (unless formulation conditions warranted lower starting concentrations). Culture supernatants were harvested and assayed for NFKB activation using the colorimetric SEAP detection kit QU ANTI-BLUE (a trademark of InvivoGen).
The assay measured NFKB mediated SEAP production following TLR7 or TLR8 specific activation.
It should be noted that the HEK assay is not optimal for evaluating TLR7 since TLR7 signals via both the NFKB (leading to induction of inflammatory cytokines) and IRF7 pathways (leading to IFN induction) and the HEK system only measures the NFKB side of TLR7 signaling. Oxoadenine 3a was not active on hTLR7 or hTLR8 but the other oxoadenines 3b-g were all active.

hPBMCs [1] = assay: TNFα induction in hPBMCs; type: cell-based, human; conditions: 24 hours stimulation
Procedure: (§1) Compounds were dissolved in 2% glycerol in water to working concentrations starting at 10 μM, serially diluted to 0.00013 μM with 5-fold dilutions. This compound preparation was added to 96-well flat bottom plates at a volume of 10 μl.
(§2) An additional 10 μl of media was added to these wells, or another compound preparation if co-stimulation was intended.
Blood samples from human donors were collected into heparinized 60 cc syringes, and divided into 20 ml aliquots in 50 ml conical culture tubes. The whole blood aliquots were then diluted with 15 ml of PBS, and then underlay with 15 ml HISTOPAQUE™. The samples were centrifuged at 800 g for 30 min with no brake and the buffy coat interface carefully removed. The collected cells were centrifuged at 1500 rpm for 5 minutes and the pellet resuspended in 10 ml of PBS. […] After the final wash, the combined cells were brought up in 20 ml complete media (RPMI 1640 supplemented with 10% v/v heat-inactivated Fetal Bovine Serum (FBS), 100 U/ml penicillin G, 100 μg/ml streptomycin, 10 mM L-glutamine), counted using a Countess automated cell counter (Invitrogen, Life Technologies) and diluted to give a final concentration of 2.8×10^6/ml. […]
The induction of cytokines in human peripheral blood mononuclear cells (hPBMCs) after 24 hours stimulation with oxoadenines 3e-g was next evaluated using cytokine ELISA and intracellular cytokine staining (ICS). […]

hPBMCs [2] = assay: IFNα induction in hPBMCs; type: cell-based; conditions: human PBMCs, FIG. 6
Procedure: as §1, §2
Blood samples from human donors were collected into heparinized 60 cc syringes, and divided into 20 ml aliquots in 50 ml conical culture tubes. The whole blood aliquots were then diluted with 15 ml of PBS, and then underlay with 15 ml HISTOPAQUE™. The samples were centrifuged at 800 g for 30 min with no brake and the buffy coat interface carefully removed. The collected cells were centrifuged at 1500 rpm for 5 minutes and the pellet resuspended in 10 ml of PBS. The cells were pooled and further washed twice in PBS to remove all HISTOPAQUE™ from the samples. After the final wash, the combined cells were brought up in 20 ml complete media (RPMI 1640 supplemented with 10% v/v heat-inactivated Fetal Bovine Serum (FBS), 100 U/ml penicillin G, 100 μg/ml streptomycin, 10 mM L-glutamine), counted using a Countess automated cell counter (Invitrogen, Life Technologies) and diluted to give a final concentration of 2.8×10^6/ml. […]
The induction of IFNα from hPBMCs upon stimulation with oxoadenines 3a-g was also evaluated. […]

pDC and mDC in hPBMCs = assay: Activation induced apoptosis by Annexin-V staining in pDC and mDC of stimulated hPBMCs; type: cell-based, human; conditions: hPBMCs stimulated with various doses
Source text: This observed cell type specific apoptosis correlated with the dose-dependent IFNα and TNFα induction curves.

human PBMCs = assay: IL-12p70 induction in human PBMCs in combination with CRX601 (TLR4 agonist); type: cell-based; parameters: key to IL-12p70 w/601: * through ****; lowest to highest cytokine induction level; * through ****; lowest to highest cytokine induction level; * through ****; lowest to highest cytokine induction level; * through ****; lowest to highest cytokine induction level; conditions: for IL-12p70 w/601: PBMC/Monocytes, in combination with CRX601; for synergy with CRX601 for IL12-p70: human PBMCs, FIGS. 8A and 8B
Procedure: as §2
(§3) Blood samples from human donors were collected into heparinized 60 cc syringes, and divided into 20 ml aliquots in 50 ml conical culture tubes. The whole blood aliquots were then diluted with 15 ml of PBS, and then underlay with 15 ml HISTOPAQUE™. The samples were centrifuged at 800 g for 30 min with no brake and the buffy coat interface carefully removed. The collected cells were centrifuged at 1500 rpm for 5 minutes and the pellet resuspended in 10 ml of PBS. The cells were pooled and further washed twice in PBS to remove all HISTOPAQUE™ from the samples. After the final wash, the combined cells were brought up in 20 ml complete media (RPMI 1640 supplemented with 10% v/v heat-inactivated Fetal Bovine Serum (FBS), 100 U/ml penicillin G, 100 μg/ml streptomycin, 10 mM L-glutamine), counted using a Countess automated cell counter (Invitrogen, Life Technologies) and diluted to give a final concentration of 2.8×10^6/ml. This cell suspension was added to the culture plate containing the compound preparations (see above), at a volume of 180 μl, resulting in a total well volume of 200 µl.
After 24 hr incubation (37° C., 95% air, 5% CO2), the supernatants were carefully removed and assayed for cytokine/chemokine induction using multiplex kits (FLUOROKINE™ multiplex kits from R&D Systems [bio-techne], Minneapolis, Minn.) and human IFNa VERIKINE™ ELISA kit (Pestka Biomedical Laboratories, Inc., Piscataway, N.J.).
As previously observed with other oxoadenines (see WO2010/018134), synergy with AGP CRX601 for IL12-p70 was relatively low compared to imidazoquinoline compound CRX642 (see WO2010/048520; PCT/US2009/061867; U.S. Pat. No. 8,624,029) in combination with CRX601.

PBMC/Monocytes = assay: Inflammatory cytokine induction in PBMC/Monocytes; type: cell-based, human; parameters: key: * through ****; lowest to highest cytokine induction level; * through ****; lowest to highest cytokine induction level; * through ****; lowest to highest cytokine induction level; * through ****; lowest to highest cytokine induction level
Procedure: as §1
as §3, with “µl. […]” for “µl.”

Row | SMILES | EC50 (hTLR7) [nM] | higher TLR7 potency in relation to oxoadenine 3b (hTLR7) [fold] | TNFα induction in hPBMCs (in words) (hPBMCs [1]) | dose at which IFN-alpha is induced (hPBMCs [2]) [nM] | Annexin-V staining in mDC (pDC and mDC in hPBMCs; mDC) | Annexin-V staining in pDC (pDC and mDC in hPBMCs; pDC) | IL-12p70 w/601 (human PBMCs) | synergy with CRX601 for IL12-p70 (human PBMCs) | Infl. Cytok. (PBMC/Monocytes)
1 | CCCCOc1nc(N)c2[nH]c(=O)n(CCCCCC3CCNCC3)c2n1 [Compound 3f] | 26 | 50 | high potency | ~1 | not in mDC | dose dependent increase in Annexin-V staining | ** | demonstrated synergy with CRX601 throughout a wide dose range | ***
2 | CCC[C@H](C)Oc1nc(N)c2nc(O)n(CCCCCC3CCNCC3)c2n1 [Compound 3x] | 6 | 100 | high potency | ~1 | – | – | ** | demonstrated synergy with CRX601 throughout a wide dose range | –
